Experimental data published in US20260274814A1, “THIENYL COMPOUNDS FOR THE TREATMENT OF A CENTRAL NERVOUS SYSTEM DISEASE OR DISORDER” (Coreterra Therapeutics, Inc., priority 2023, published 2026).
Counter-ions that a name gives are not always drawn.

System: mice
Test: Neuropharmacological Assay (SmartCube): automated behavioral signature of compound-treated mice compared with a database of reference drug classes
Format: in vivo
Details: for MED (minimal effective dose) / minimal effective dose: dose having 45% or more total activity in SmartCube, i.p., if only one dose was tested, that dose is shown; for AG / AN / AX / CE / HL / PS / SH / AD / AP / MS / UK: probability that activity matches this class of agents, 3.0 mg/kg i.p., 15 min before test; for minimal effective dose: Mus musculus, ip, read-out: MED (minimal effective dose)
Text: Neurosci. 2011 Sep. 9; 5: 103 (doi: 10.3389/fnins.2011.00103) (“Roberds”). As reported in Roberds, because psychiatric diseases generally result from disorders of cell-cell communication or circuitry, intact systems are useful in detecting improvement in disease-relevant endpoints. These endpoints are typically behavioral in nature, often requiring human observation and interpretation. To facilitate testing of multiple compounds for behavioral effects relevant to psychiatric disease, PsychoGenics, Inc. (Tarrytown, NY, “PGI”) developed SmartCube™ an automated system in which behaviors of compound-treated mice are captured by digital video and analyzed with computer algorithms. (D. Brunner et al. Drug Discov. Today 2002, 7:S107-S112). PGI Analytical Systems uses data from SmartCube™ to compare the behavioral signature of a test compound to a database of behavioral signatures obtained using a large set of diverse reference compounds. (The composition of the database as well as validation of the method is further described in Roberds). In this way, the neuropharmacological effects of a test compound can be predicted by similarity to major classes of compounds, such as antipsychotics, anxiolytics and antidepressants.
The SmartCube™ system produces an activity signature indicating the probability that the activity of the test compound at the administered dose matches a given class of neuropharmacological agents. (See, e.g., Roberds, FIGS. 2 and 3). The test compound is simultaneously compared against multiple classes of agents; thus, a separate probability is generated for each behavioral effect measured (e.g., anxiolytic activity, analgesic activity, etc.). In table 2 below, these probabilities are reported for each behavioral effect measured as described in Table 1 below.
Provided compounds were dissolved in a mixture of Pharmasolve™ (N-methyl-2-pyrrolidone), polyethylene glycol and propylene glycol, and were injected i.p. 15 min. before the behavioral test. For each compound, injections were administered at 3 different doses. For each behavioral effect measured, results for the 3.0 mg/kg dose are presented. The potency of many of the compounds in the table was also determined in the SmartCube™ system. Test compounds were routinely examined at dose levels of 0.3, 1, 3 and 10 mg per kg (mpk), although the dose range was increased or decreased, if necessary, to obtain a full dose response curve. A compound's minimal effective dose (MED) is a measure of the compound's potency. The MED was defined as the dose (in mpk) having 45% or more total activity in SmartCube. If only one dose was tested, that dose is shown in the MED column of Table 2 even though the dose is not known to be the MED.

SMILES	AG	AN	AX	CE	HL	PS	SH	AD (hydrochloride, 3 mg/kg)	AP (hydrochloride, 3 mg/kg)	UK (hydrochloride, 3 mg/kg)	AD	MS	UK	AX (hydrochloride, 3 mg/kg)	MED (minimal effective dose) (hydrochloride)	AP	HL (hydrochloride, 3 mg/kg)	further results
CNC1CCc2c(csc2Cl)C1 (single isomer, unassigned) [Compound 58, 1-chloro-N-methyl-4,5,6,7-tetrahydro-2-benzothiophen-5-amine hydrochloride]	ND (^ <4%)	ND (^ <4%)	ND (^ <4%)	ND (^ <4%)	ND (^ <4%)	ND (^ <4%)	ND (^ <4%)	+ (≥4%)	+++ (≥49%)	ND (^ <4%)								MED (minimal effective dose): 1.0 mpk; MS (hydrochloride, 3 mg/kg): + (≥4%)
CNC1CCc2c(Cl)sc(Cl)c2C1 (single isomer, unassigned) [Compound 59, 1,3-dichloro-N-methyl-4,5,6,7-tetrahydro-2-benzothiophen-5-amine hydrochloride]	ND (^ <4%)	ND (^ <4%)		ND (^ <4%)	ND (^ <4%)	ND (^ <4%)	ND (^ <4%)		+++ (≥49%)		ND (^ <4%)	ND (^ <4%)	ND (^ <4%)	++ (≥24%)				minimal effective dose: 3 mg/kg
CNC1CCc2c(Cl)sc(Cl)c2C1 (single isomer, unassigned) [Compound 60, 1,3-dichloro-N-methyl-4,5,6,7-tetrahydro-2-benzothiophen-5-amine hydrochloride]	ND (^ <4%)	ND (^ <4%)		ND (^ <4%)	ND (^ <4%)	ND (^ <4%)	ND (^ <4%)		+ (≥4%)		ND (^ <4%)	ND (^ <4%)	ND (^ <4%)	+++ (≥49%)				MED (minimal effective dose): 3.0 mpk
CNC1CCc2csc(C(F)(F)F)c2C1 (single isomer, unassigned) [Compound 61, N-methyl-3-(trifluoromethyl)-4,5,6,7-tetrahydro-2-benzothiophen-5-amine hydrochloride]	ND (^ <4%)	ND (^ <4%)	ND (^ <4%)	ND (^ <4%)	ND (^ <4%)	ND (^ <4%)	ND (^ <4%)	+ (≥4%)	+++ (≥49%)			ND (^ <4%)	ND (^ <4%)		3.0 mpk			
CNC1CCc2csc(C(F)(F)F)c2C1 (single isomer, unassigned) [Compound 62, N-methyl-3-(trifluoromethyl)-4,5,6,7-tetrahydro-2-benzothiophen-5-amine hydrochloride]	ND (^ <4%)	ND (^ <4%)	ND (^ <4%)	ND (^ <4%)	ND (^ <4%)	ND (^ <4%)	ND (^ <4%)	++++ (≥74%)	+ (≥4%)			ND (^ <4%)	ND (^ <4%)		1 mpk			
CNC1CCc2c(csc2C(F)(F)F)C1 (single isomer, unassigned) [Compound 63, N-methyl-1-(trifluoromethyl)-4,5,6,7-tetrahydro-2-benzothiophen-5-amine hydrochloride]	ND (^ <4%)	ND (^ <4%)		ND (^ <4%)	ND (^ <4%)	ND (^ <4%)	ND (^ <4%)			ND (^ <4%)	+ (≥4%)			+++ (≥49%)	1.0 mpk	ND (^ <4%)		MS (hydrochloride, 3 mg/kg): + (≥4%)
CNC1CCc2c(csc2C(F)(F)F)C1 (single isomer, unassigned) [Compound 64, N-methyl-1-(trifluoromethyl)-4,5,6,7-tetrahydro-2-benzothiophen-5-amine hydrochloride]	ND (^ <4%)	ND (^ <4%)		ND (^ <4%)	ND (^ <4%)	ND (^ <4%)	ND (^ <4%)			++ (≥24%)	+ (≥4%)			ND (^ <4%)	10 mpk	ND (^ <4%)		MS (hydrochloride, 3 mg/kg): ND (^ <4%)
Cc1csc2c1CCC(N)C2 (single isomer, unassigned) [Compound 65, 3-methyl-4,5,6,7-tetrahydrobenzothiophen-6-amine hydrochloride]	ND (^ <4%)	ND (^ <4%)	ND (^ <4%)	ND (^ <4%)			ND (^ <4%)	+++ (≥49%)	ND (^ <4%)			ND (^ <4%)	ND (^ <4%)		3 mpk		+ (≥4%)	PS (hydrochloride, 3 mg/kg): + (≥4%)
Cc1csc2c1CCC(N)C2 (single isomer, unassigned) [Compound 66, 3-methyl-4,5,6,7-tetrahydrobenzothiophen-6-amine hydrochloride]	ND (^ <4%)	ND (^ <4%)	ND (^ <4%)	ND (^ <4%)			ND (^ <4%)	ND (^ <4%)	++++ (≥74%)			ND (^ <4%)	ND (^ <4%)		1 mpk		ND (^ <4%)	PS (hydrochloride, 3 mg/kg): ND (^ <4%)
Cc1sc2c(c1C)CCC(N)C2 (single isomer, unassigned) [Compound 67, 2,3-dimethyl-4,5,6,7-tetrahydrobenzothiophen-6-amine hydrochloride]	ND (^ <4%)	ND (^ <4%)	ND (^ <4%)	ND (^ <4%)		ND (^ <4%)	ND (^ <4%)	+++ (≥49%)				ND (^ <4%)	ND (^ <4%)			ND (^ <4%)	ND (^ <4%)	minimal effective dose: 3 mg/kg
Cc1sc2c(c1C)CCC(N)C2 (single isomer, unassigned) [Compound 68, 2,3-dimethyl-4,5,6,7-tetrahydrobenzothiophen-6-amine hydrochloride]	ND (^ <4%)	ND (^ <4%)	ND (^ <4%)	ND (^ <4%)		ND (^ <4%)	ND (^ <4%)	++ (≥24%)				ND (^ <4%)	ND (^ <4%)			ND (^ <4%)	+ (≥4%)	MED (minimal effective dose): 3 mpk
CNC1CCc2scc(C)c2C1.Cl (single isomer, unassigned) [Compound 69, N, 3-dimethyl-4,5,6,7-tetrahydrobenzothiophen-5-amine hydrochloride]	ND (^ <4%)	ND (^ <4%)		ND (^ <4%)	ND (^ <4%)	ND (^ <4%)	ND (^ <4%)		ND (^ <4%)	+++ (≥49%)	ND (^ <4%)	ND (^ <4%)		ND (^ <4%)	3 mpk			
CNC1CCc2scc(C)c2C1.Cl (single isomer, unassigned) [Compound 70, N, 3-dimethyl-4,5,6,7-tetrahydrobenzothiophen-5-amine hydrochloride]	ND (^ <4%)	ND (^ <4%)		ND (^ <4%)	ND (^ <4%)	ND (^ <4%)	ND (^ <4%)		+++ (≥49%)	ND (^ <4%)	ND (^ <4%)	ND (^ <4%)		+ (≥4%)	1 mpk			
